Results taken from patent US12428455B2, “Dominant negative CEBPB and CEBPD proteins and methods of use for decreasing viability of neoplastic cells” (The Trustees of Columbia University in the City of New York, priority 2018, dated 2025).

How the values were obtained:
[1] = test system: MDA-MB 231, HCT116, and A375 cells; test: Peptide treatment after doxorubicin pre-treatment, cell number; type: cell-based; details: 100 nM, 24 hours
Method: Replicate cultures of MDA-MB 231, HCT116, and A375 cells were pretreated with 100 nM doxorubicin for 24 hours, and then treated with 1 μM, 3 μM, 10 μM, or 20 μM CP-dn-CEBPB and CP-dn-CEBPD peptides, maintained for 6 days, and then assessed for cell number. The bar graphs of FIGS. 31A (MDA-MB 231, CP-dn-CEBPB), 31C (MDA-MB 231, CP-dn-CEBPBD, 31E (HCT116, CP-dn-CEBPBD), 31G (HCT116, CP-dn-CEBPD), 31I (A375, CP-dn-CEBPBB), and 31K (A375, CP-dn-CEBPBD) show relative cell numbers for each condition as compared to untreated controls. The line graphs of FIGS. 31B (MDA-MB 231, CP-dn-CEBPB), 31D (MDA-MB 231, CP-dn-CEBPBD), 31F (HCT116, CP-dn-CEBPB), 31H (HCT116, CP-dn-CEBPD), 31J (A375, CP-dn-CEBPB), and 31L (A375, CP-dn-CEBPBD) show the response as normalized in each case so that 100 represents the relative number of surviving cells that received the indicated level of doxorubicin, but no peptide treatment.

[2] = test system: paclitaxel-resistant T98G cells; test: Cell number, paclitaxel-resistant T98G cells; type: cell-based; details: 6 days; 0 μM to 50 μM peptide or 0 nM to 50 nM paclitaxel
Method: Replicate cultures of T98G wild type cells and paclitaxel-resistant T98G cells were treated with 0 nM to 50 nM paclitaxel or 0 μM to 50 μM CP-dn-CEBPB or CP-dn-CEBPD peptides, maintained for 6 days, and then assessed for cell number. Paclitaxel resistant T98G cells were inhibited by both CP-dn-CEBPB (FIG. 28A) and CP-dn-CEBPD (FIG. 28B), but, as expected were not inhibited by paclitaxel (FIG. 28C). This establishes that CP-dn-CEBPB and CP-dn-CEBPD may be effective against chemotherapy-resistant cells.

COc1cccc2c1C(=O)c1c(O)c3c(c(O)c1C2=O)C[C@@](O)(C(=O)CO)C[C@@H]3O[C@H]1C[C@H](N)[C@H](O)[C@H](C)O1 [doxorubicin, reference compound]
effect of doxorubicin pre-treatment on growth of the cancer cells [1]: inhibited grown of the cancer cells

CC(=O)O[C@H]1C(=O)[C@@]2(C)[C@H]([C@H](OC(=O)c3ccccc3)[C@]3(O)C[C@H](OC(=O)[C@H](O)[C@@H](NC(=O)c4ccccc4)c4ccccc4)C(C)=C1C3(C)C)[C@]1(OC(C)=O)CO[C@@H]1C[C@@H]2O [paclitaxel, reference compound]
inhibition of paclitaxel-resistant T98G cells (cell number) [2]: not inhibited
